Molecules are shown by their SMILES. The source made the active and inactive calls. The rule behind the calls is not given here.

Experimental findings from ChEMBL document CHEMBL5226379, “Hypouricemic Actions of the Pericarp of Mangosteen in Vitro and in Vivo” (J Nat Prod, 2023) are described below.

Series [1] concerns Mus musculus. Briefly: Hypouricemic activity in potassium oxonate-induced hyperuricemic Kunming mouse model assessed as decrease in serum XOD level at 1 to 4 mg/kg, IG pre-administered via gavage twice daily for 5 times followed by potassium oxonate injection for 1 hrs prior to last dose. As to conditions: dose 1-4 mg/kg, time 5.0 day. It is filed as functional, organism-based.

Series [2] is described as follows: Acute toxicity in mouse assessed as change in body weight at 50 g/Kg, IG measured for 14 days. As to conditions: in vivo, po, 50000 mg/kg, 336 h, time 14 day.
Series [3] has as its system Rattus norvegicus. The series can be described thus: Anti-hyperuricemic activity against potassium oxonate-induced hyperuricemic Sprague-Dawley rat model assessed as urinary urate level at 1 mg/kg, po pre-administered via gavage twice daily for 5 times followed by potassium oxonate injection for 1 hrs prior to last dose and measured after 3 hrs. Type of series: functional. The note with it: time 123 hrs.

Series [4] relates to Rattus norvegicus. The series can be described thus: Anti-hyperuricemic activity against potassium oxonate-induced hyperuricemic Sprague-Dawley rat model assessed as fractional excretion of urate at 1 mg/kg, po pre-administered via gavage twice daily for 5 times followed by potassium oxonate injection for 1 hrs prior to last dose and measured after 3 hrs relative to control. The note with it: time 123 hrs. It is filed as functional.

Series [5] has as its system Rattus norvegicus. The series can be described thus: Anti-hyperuricemic activity against potassium oxonate-induced hyperuricemic Sprague-Dawley rat model assessed as urinary creatinine level at 2 mg/kg, po pre-administered via gavage twice daily for 5 times followed by potassium oxonate injection for 1 hrs prior to last dose and measured after 3 hrs. It is filed as functional. The note with it: time 123 hrs.

The subject of series [6] is Mus musculus. The series can be described thus: Hypouricemic activity in potassium oxonate-induced hyperuricemic Kunming mouse model assessed as decrease in serum uric acid level at 5 mg/kg, IG pre-administered via gavage twice daily for 5 times followed by potassium oxonate injection for 1 hrs prior to last dose by phosphotungstic acid method. It is filed as functional. As to conditions: time 5.0 day.

Series [7] concerns Rattus norvegicus. Briefly: Anti-hyperuricemic activity against potassium oxonate-induced hyperuricemic Sprague-Dawley rat model assessed as increase in urinary urate level at 4 mg/kg, po pre-administered via gavage twice daily for 5 times followed by potassium oxonate injection for 1 hrs prior to last dose and measured after 3 hrs relative to control. As to conditions: time 123 hrs. It is filed as functional.

The test system of series [8] is Rattus norvegicus. The series can be described thus: Anti-hyperuricemic activity against potassium oxonate-induced hyperuricemic Sprague-Dawley rat model assessed as urinary urate level at 2 mg/kg, po pre-administered via gavage twice daily for 5 times followed by potassium oxonate injection for 1 hrs prior to last dose and measured after 3 hrs. It is filed as functional. As to conditions: time 123 hrs.

The subject of series [9] is Rattus norvegicus. Briefly: Anti-hyperuricemic activity against potassium oxonate-induced hyperuricemic Sprague-Dawley rat model assessed as urinary creatinine level at 1 mg/kg, po pre-administered via gavage twice daily for 5 times followed by potassium oxonate injection for 1 hrs prior to last dose and measured after 3 hrs. It is filed as functional. The note with it: time 123 hrs.

The species named for series [10] is Homo sapiens. The series can be described thus: Inhibition of uricase (unknown origin) using uric acid as substrate at 37.5 mg/L preincubated with compounds for 15 mins followed by uric acid addition.
The test system of series [11] is Rattus norvegicus. The series can be described thus: Anti-hyperuricemic activity against potassium oxonate-induced hyperuricemic Sprague-Dawley rat model assessed as serum urate level at 1 mg/kg, po pre-administered via gavage twice daily for 5 times followed by potassium oxonate injection for 1 hrs prior to last dose and measured after 3 hrs. It is filed as functional. The note with it: time 123 hrs.

Series [12] has as its target T1, Solute carrier family 22 member 12 (Homo sapiens, UniProt Q96S37).
T1 sequence (Q96S37 whole entry): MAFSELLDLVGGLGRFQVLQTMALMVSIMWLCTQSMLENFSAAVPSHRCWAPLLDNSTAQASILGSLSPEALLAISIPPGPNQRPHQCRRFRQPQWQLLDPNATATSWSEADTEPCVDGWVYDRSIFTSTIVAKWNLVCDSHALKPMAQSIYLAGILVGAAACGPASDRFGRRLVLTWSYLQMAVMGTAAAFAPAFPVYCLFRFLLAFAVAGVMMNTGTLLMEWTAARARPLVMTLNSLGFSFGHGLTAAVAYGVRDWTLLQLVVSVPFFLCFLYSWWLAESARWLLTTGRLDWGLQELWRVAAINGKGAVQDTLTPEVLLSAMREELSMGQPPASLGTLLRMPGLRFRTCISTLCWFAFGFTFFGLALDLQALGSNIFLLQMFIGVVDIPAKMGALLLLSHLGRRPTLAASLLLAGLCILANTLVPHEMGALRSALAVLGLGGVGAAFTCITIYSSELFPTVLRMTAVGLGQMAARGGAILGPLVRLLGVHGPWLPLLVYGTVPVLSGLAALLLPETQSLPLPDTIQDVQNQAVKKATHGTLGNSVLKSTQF
Briefly: Inhibition of human URAT1-mediated [8-14C]uric acid uptake expressed in HEK293 cells using [8-14C]uric acid as substrate by liquid scintillation counter analysis. Type of series: cell-based.

The target of series [13] is Xanthine dehydrogenase/oxidase (Homo sapiens, UniProt P47989). Briefly: Inhibition of XOD (unknown origin) using xanthine as substrate assessed as inhibition of uric acid generation at 150 mg/L preincubated for 15 mins followed by xanthine addition and measured by spectrophotometric analysis relative to control.
Chain of Xanthine dehydrogenase/oxidase (P47989 whole entry): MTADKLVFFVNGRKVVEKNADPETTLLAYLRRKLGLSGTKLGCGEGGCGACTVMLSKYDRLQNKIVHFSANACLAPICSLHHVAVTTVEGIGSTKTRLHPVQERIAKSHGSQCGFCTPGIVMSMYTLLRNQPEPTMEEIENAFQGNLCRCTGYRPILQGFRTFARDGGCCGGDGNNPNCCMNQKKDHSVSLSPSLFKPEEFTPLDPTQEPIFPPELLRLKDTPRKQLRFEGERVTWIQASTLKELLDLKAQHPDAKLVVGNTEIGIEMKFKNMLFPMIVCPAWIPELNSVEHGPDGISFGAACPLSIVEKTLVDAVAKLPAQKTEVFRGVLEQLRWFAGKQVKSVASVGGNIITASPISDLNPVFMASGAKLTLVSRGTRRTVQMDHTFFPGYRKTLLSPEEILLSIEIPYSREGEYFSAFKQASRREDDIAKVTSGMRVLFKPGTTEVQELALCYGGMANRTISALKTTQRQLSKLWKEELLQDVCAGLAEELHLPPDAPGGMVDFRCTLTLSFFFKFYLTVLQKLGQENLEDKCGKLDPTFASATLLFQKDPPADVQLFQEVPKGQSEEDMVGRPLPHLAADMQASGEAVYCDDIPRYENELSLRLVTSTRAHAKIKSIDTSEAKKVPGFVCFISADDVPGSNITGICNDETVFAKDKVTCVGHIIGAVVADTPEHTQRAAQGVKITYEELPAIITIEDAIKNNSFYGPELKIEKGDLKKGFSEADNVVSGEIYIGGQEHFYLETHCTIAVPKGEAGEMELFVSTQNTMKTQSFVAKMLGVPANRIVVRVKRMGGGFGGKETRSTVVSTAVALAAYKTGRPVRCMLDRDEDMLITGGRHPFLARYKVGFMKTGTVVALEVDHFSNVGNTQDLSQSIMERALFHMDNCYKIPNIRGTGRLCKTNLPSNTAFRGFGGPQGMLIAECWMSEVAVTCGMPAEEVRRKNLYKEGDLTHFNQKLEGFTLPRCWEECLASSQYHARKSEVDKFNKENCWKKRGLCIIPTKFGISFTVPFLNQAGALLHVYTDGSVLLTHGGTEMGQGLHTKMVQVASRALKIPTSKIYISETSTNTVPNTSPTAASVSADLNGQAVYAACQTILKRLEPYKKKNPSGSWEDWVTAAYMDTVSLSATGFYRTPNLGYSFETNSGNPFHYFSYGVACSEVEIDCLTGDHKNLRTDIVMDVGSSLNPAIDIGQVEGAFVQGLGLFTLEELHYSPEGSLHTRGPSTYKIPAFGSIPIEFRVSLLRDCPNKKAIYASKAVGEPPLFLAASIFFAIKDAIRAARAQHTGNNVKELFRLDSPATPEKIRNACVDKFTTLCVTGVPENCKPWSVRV
In series [14] the test system is Mus musculus. The series can be described thus: Hypouricemic activity in potassium oxonate-induced hyperuricemic Kunming mouse model assessed as decrease in serum uric acid level at 4 mg/kg, IG by phosphotungstic acid method. As to conditions: time <= 6.0 hrs, TDE = time-dependent effect. Type of series: functional, organism-based.
Series [15] relates to Rattus norvegicus. The series can be described thus: Anti-hyperuricemic activity against potassium oxonate-induced hyperuricemic Sprague-Dawley rat model assessed as urinary creatinine level at 4 mg/kg, po pre-administered via gavage twice daily for 5 times followed by potassium oxonate injection for 1 hrs prior to last dose and measured after 3 hrs. Type of series: functional. The note with it: time 123 hrs.

Series [16] deals with Rattus norvegicus. The series can be described thus: Anti-hyperuricemic activity against potassium oxonate-induced hyperuricemic Sprague-Dawley rat model assessed as clearance of urate measured per body surface area of 0.0311 m2 at 2 mg/kg, po pre-administered via gavage twice daily for 5 times followed by potassium oxonate injection for 1 hrs prior to last dose and measured after 3 hrs. It is filed as functional. The note with it: time 123 hrs.

Series [17] has as its system Rattus norvegicus. The series can be described thus: Anti-hyperuricemic activity against potassium oxonate-induced hyperuricemic Sprague-Dawley rat model assessed as serum urate level at 2 mg/kg, po pre-administered via gavage twice daily for 5 times followed by potassium oxonate injection for 1 hrs prior to last dose and measured after 3 hrs. It is filed as functional. The note with it: time 123 hrs.

Series [18] has as its system Mus musculus. Briefly: Hypouricemic activity in potassium oxonate-induced hyperuricemic Kunming mouse model assessed as decrease in serum uric acid level at 4 mg/kg, IG pre-administered with potassium oxonate for one hour followed by compound treatment and measured after 2 hrs by phosphotungstic acid method relative to control. Set-up: scale not given: the % may be the effect or the level left. It is filed as functional.

Series [19] is filed under the species Homo sapiens. Briefly: Inhibition of uricase (unknown origin) using uric acid as substrate at 112.5 mg/L preincubated with compounds for 15 mins followed by uric acid addition.
Series [20] deals with Rattus norvegicus. Briefly: Anti-hyperuricemic activity against potassium oxonate-induced hyperuricemic Sprague-Dawley rat model assessed as clearance of creatinine measured per body surface area of 0.0311 m2 at 1 mg/kg, po pre-administered via gavage twice daily for 5 times followed by potassium oxonate injection for 1 hrs prior to last dose and measured after 3 hrs. Type of series: functional. As to conditions: time 123 hrs.

Series [21] concerns Mus musculus. The series can be described thus: Anti-hyperuricemic activity against uric acid-induced hyperuricemic Kunming mouse model assessed as decrease in URAT1 protein level in kidney at 2 to 8 mg/kg, pre-administered with uric acid for 3.5 days followed by compound administration via gavage twice a day for seven times by ELISA analysis. It is filed as functional, organism-based. As to conditions: dose 2-8 mg/kg, time 7.0 day.

Series [22] relates to Rattus norvegicus. Briefly: Anti-hyperuricemic activity against potassium oxonate-induced hyperuricemic Sprague-Dawley rat model assessed as serum urate level at 4 mg/kg, po pre-administered via gavage twice daily for 5 times followed by potassium oxonate injection for 1 hrs prior to last dose and measured after 3 hrs. The note with it: time 123 hrs. Type of series: functional.

The test system of series [23] is Rattus norvegicus. The series can be described thus: Anti-hyperuricemic activity against potassium oxonate-induced hyperuricemic Sprague-Dawley rat model assessed as ratio of urinary urate to urinary creatinine at 4 mg/kg, po pre-administered via gavage twice daily for 5 times followed by potassium oxonate injection for 1 hrs prior to last dose and measured after 3 hrs. It is filed as functional. The note with it: time 123 hrs.

For `COc1c(O)cc2oc3cc(O)c(CC=C(C)C)c(O)c3c(=O)c2c1CC=C(C)C` [MANGOSTIN], the outcome in the series on Mus musculus [1] and in the series on Mus musculus [21] was inactive. Moreover, the Activity entry in series [2] is given as “Non-Toxic”; in the series with Rattus norvegicus [3], 2.4 mmol/L; with Rattus norvegicus [4] it was 71%; with Rattus norvegicus [5], 0.8 mmol/L; in the series with Rattus norvegicus [7] it was 46%; with Rattus norvegicus [8] it was 2.6 mmol/L. Further, the Activity in the series with Rattus norvegicus [9] was 0.9 mmol/L; with Rattus norvegicus [11] it was 220 µmol/L; with Mus musculus [14] it was “Tde”; with Rattus norvegicus [15], 0.9 mmol/L; in the series with Rattus norvegicus [16], 11.2 mL/min; in the series with Rattus norvegicus [17], 236 µmol/L. Besides, the Activity in the series on Mus musculus [18] worked out at 63%; with Rattus norvegicus [20], 21.4 mL/min; in the series with Rattus norvegicus [22], 202 µmol/L. Further, the result in the series with Mus musculus [6] was Active. Besides, the values for the inhibition in the series filed under Homo sapiens [10] and in the series listed under Homo sapiens [19] were 1.4% and 6.3%, respectively. In addition, the IC50 in [12] amounted to 58.9 µM. In series [13], the inhibition at 150 µg/mL was 1.4%. The Ratio in the series with Rattus norvegicus [23] amounted to 2.9.
